In patent US20260109732A1, “LIPID AMINES” (ModernaTX, Inc., priority 2021, published 2026):
Where a name gives a salt, the structure may show the parent alone.

What was measured:
[1] = Diameter and PDI from DLS measurements of mRNA nanoparticles with lipid amines; assay type: physicochemical
How it was run: (§1)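 Ionizable lipid nanoparticles (IL1:DSPC:cholesterol:PEG-DMG-2K) formed by vortex mixing at pH 4, loaded with luciferase or CFTR mRNA at N:P 4.93, neutralized with TRIS pH 8.12, then modified with lipid amine SA50 at pH 7.5. Particle diameter and PDI read by DLS; mRNA encapsulation by Ribogreen assay.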

[2] = Encapsulation of mRNA nanoparticles with lipid amines using Ribogreen assay; assay type: physicochemical
How it was run: as §1

HeLa cells [3] = test: CFTR Protein Expression Assay in HeLa Cells; assay type: cell-based, Human; conditions: LNPs encapsulating CFTR mRNA, N=4 wells; 5 h serum-free then 24 h; immunofluorescence vs PBS control
How it was run: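 HeLa cells dosed with CFTR mRNA LNPs (70 mM NaCl final buffer matrix) in serum-free MEM for 5 h, then complete MEM for 24 h. Fixed cells immunostained with anti-CFTR monoclonal and Alexa 488 secondary, imaged confocally; CFTR intensity per cell expressed as fold-change versus PBS buffer control, N=4 wells.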

HeLa cells [4] = test: Luciferase Protein Expression Assay in HeLa Cells; assay type: cell-based, Human; conditions: LNPs encapsulating Luciferase mRNA, 25 ng per well, N=4 wells; 5 h serum-free then 24 h; ONE-Glo
How it was run: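 HeLa cells received LNPs carrying luciferase mRNA (25 ng per well) or PBS in serum-free MEM for 5 h, then complete MEM for a further 24 h. Luciferase then read by ONE-Glo luminescence after lysis and reported as average RLU of 4 replicate wells.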

[5] = CFTR mRNA nanoparticle with lipid amine
[6] = Luciferase mRNA nanoparticle modified with lipid amine

Row | Compound | Diameter (nm) [1, 5] [nm] | PDI [1, 5] | Diameter (nm) [1, 6] [nm] | PDI [1, 6] | % Encapsulation (Ribogreen) [2, 5] [%] | % Encapsulation (Ribogreen) [2, 6] [%] | Average fold-change in CFTR signal intensity per cell compared to buffer control ± standard deviation (HeLa cells [3]) [fold-change] | Average Relative Light Units ± Standard Deviation (HeLa cells [4]) [Relative Light Units]
1 | CC[C@H](CC[C@@H](C)[C@H]1CC[C@H]2[C@@H]3CC=C4C[C@@H](OC(=O)CCCC(=O)N(CCCCCCCC(C)N)CCC(C)N)CC[C@]4(C)[C@H]3CC[C@]12C)C(C)C (stereo partly drawn) [SA154, (3S,8S,9S,10R,13R,14S,17R)-17-((2R,5R)-5-ethyl-6-methylheptan-2-yl)-10,13-dimethyl-2,3,4,7,8,9,10,11,12,13,14,15,16,17-tetradecahydro-1H-cyclopenta[a]phenanthren-3-yl 5-((3-aminobutyl)(8-aminononyl)amino)-5-oxopentanoate dihydrochloride] | 72.8 | 0.13 | 73 | 0.18 | 99.1 | 99.6 | 16.7 ± 0.8 | 28128.6 ± 4655.3
2 | CC[C@H](CC[C@@H](C)[C@H]1CC[C@H]2[C@@H]3CC=C4C[C@@H](OC(=O)CCCC(=O)N(CCCCCCCC(C)(C)N)CCC(C)(C)N)CC[C@]4(C)[C@H]3CC[C@]12C)C(C)C [SA155, (3S,8S,9S,10R,13R,14S,17R)-17-((2R,5R)-5-ethyl-6-methylheptan-2-yl)-10,13-dimethyl-2,3,4,7,8,9,10,11,12,13,14,15,16,17-tetradecahydro-1H-cyclopenta[a]phenanthren-3-yl 5-((3-amino-3-methylbutyl)(8-amino-8-methylnonyl)amino)-5-oxopentanoate dihydrochloride] | 71.1 | 0.13 | 73 | 0.11 | 99.4 | 98.9 | 12.2 ± 1.0 | 31922.9 ± 8053.8
3 | CC[C@H](CC[C@@H](C)[C@H]1CC[C@H]2[C@@H]3CC=C4C[C@@H](OC(=O)CCCC(=O)N(CCC(C)N)CCC(C)N)CC[C@]4(C)[C@H]3CC[C@]12C)C(C)C (stereo partly drawn) [SA156, (3S,8S,9S,10R,13R,14S,17R)-17-((2R,5R)-5-ethyl-6-methylheptan-2-yl)-10,13-dimethyl-2,3,4,7,8,9,10,11,12,13,14,15,16,17-tetradecahydro-1H-cyclopenta[a]phenanthren-3-yl 5-(bis(3-aminobutyl)amino)-5-oxopentanoate dihydrochloride] | 76.5 | 0.18 | 74 | 0.15 | 99.6 | 99.5 | 14.6 ± 0.8 | 37662.9 ± 8258.6
4 | CC(C)CCC[C@@H](C)[C@H]1CC[C@H]2[C@@H]3CC=C4C[C@@H](OC(=O)N(CCCC(C)(C)N)CCC(C)(C)N)CC[C@]4(C)[C@H]3CC[C@]12C [SA157, (3S,8S,9S,10R,13R,14S,17R)-10,13-dimethyl-17-((R)-6-methylheptan-2-yl)-2,3,4,7,8,9,10,11,12,13,14,15,16,17-tetradecahydro-1H-cyclopenta[a]phenanthren-3-yl (3-amino-3-methylbutyl)(4-amino-4-methylpentyl)carbamate dihydrochloride] | 73.9 | 0.16 | 75 | 0.13 | 99.8 | 99.6 | 15.9 ± 1.4 | 24130.4 ± 4741.7
5 | CC(C)CCC[C@@H](C)[C@H]1CC[C@H]2[C@@H]3CC=C4C[C@@H](OC(=O)N(CCC(C)(C)N)CCC(C)(C)N)CC[C@]4(C)[C@H]3CC[C@]12C [SA158, (3S,8S,9S,10R,13R,14S,17R)-10,13-dimethyl-17-((R)-6-methylheptan-2-yl)-2,3,4,7,8,9,10,11,12,13,14,15,16,17-tetradecahydro-1H-cyclopenta[a]phenanthren-3-yl bis(3-amino-3-methylbutyl)carbamate dihydrochloride] | 72.4 | 0.15 | 79 | 0.28 | 98.3 | 99.7 | 20.4 ± 1.3 | 33097.8 ± 7405.1
6 | CC(C)CCC[C@@H](C)[C@H]1CC[C@H]2[C@@H]3CC=C4C[C@@H](OC(=O)CCC(=O)N(CCCCNCCC(C)N)CCC(C)N)CC[C@]4(C)[C@H]3CC[C@]12C (stereo partly drawn) [SA160, (3S,8S,9S,10R,13R,14S,17R)-10,13-dimethyl-17-((R)-6-methylheptan-2-yl)-2,3,4,7,8,9,10,11,12,13,14,15,16,17-tetradecahydro-1H-cyclopenta[a]phenanthren-3-yl 4-((3-aminobutyl)(4-((3-aminobutyl)amino)butyl)amino)-4-oxobutanoate trihydrochloride] | 77.4 | 0.15 | 75 | 0.11 | 98.1 | 99.7 | 18.2 ± 1.4 | 19694.4 ± 6954.5
7 | CC[C@H](CC[C@@H](C)[C@H]1CC[C@H]2[C@@H]3CC=C4C[C@@H](OC(=O)CCC(=O)N(CCCCNCCC(C)(C)N)CCC(C)(C)N)CC[C@]4(C)[C@H]3CC[C@]12C)C(C)C [SA161, (3S,8S,9S,10R,13R,14S,17R)-17-((2R,5R)-5-ethyl-6-methylheptan-2-yl)-10,13-dimethyl-2,3,4,7,8,9,10,11,12,13,14,15,16,17-tetradecahydro-1H-cyclopenta[a]phenanthren-3-yl 4-((3-amino-3-methylbutyl)(4-((3-amino-3-methylbutyl)amino)butyl)amino)-4-oxobutanoate trihydrochloride] | 74.2 | 0.15 | 77 | 0.16 | 99.6 | 99.6 | 14.1 ± 1.5 | 17839.3 ± 7760
8 | CC(C)CCC[C@@H](C)[C@H]1CC[C@H]2[C@@H]3CC=C4C[C@@H](OC(=O)CCC(=O)N(CCCCCCCC(C)N)CCC(C)N)CC[C@]4(C)[C@H]3CC[C@]12C (stereo partly drawn) [SA162, (3S,8S,9S,10R,13R,14S,17R)-10,13-dimethyl-17-((R)-6-methylheptan-2-yl)-2,3,4,7,8,9,10,11,12,13,14,15,16,17-tetradecahydro-1H-cyclopenta[a]phenanthren-3-yl 4-((3-aminobutyl)(8-aminononyl)amino)-4-oxobutanoate dihydrochloride] | 75.4 | 0.16 | 75 | 0.15 | 98.6 | 99.4 | 21.3 ± 0.6 | 34454.6 ± 3101.8
9 | CC[C@H](CC[C@@H](C)[C@H]1CC[C@H]2[C@@H]3CC=C4C[C@@H](OC(=O)CCC(=O)N(CCCCCCCC(C)N)CCC(C)N)CC[C@]4(C)[C@H]3CC[C@]12C)C(C)C (stereo partly drawn) [SA163, (3S,8S,9S,10R,13R,14S,17R)-17-((2R,5R)-5-ethyl-6-methylheptan-2-yl)-10,13-dimethyl-2,3,4,7,8,9,10,11,12,13,14,15,16,17-tetradecahydro-1H-cyclopenta[a]phenanthren-3-yl 4-((3-aminobutyl)(8-aminononyl)amino)-4-oxobutanoate dihydrochloride] | 70.6 | 0.09 | 71 | 0.17 | 100 | 99.1 | 11.3 ± 0.5 | 30168 ± 7878.9
10 | CC(C)CCC[C@@H](C)[C@H]1CC[C@H]2[C@@H]3CC=C4C[C@@H](OC(=O)CCC(=O)N(CCCCCCCC(C)(C)N)CCC(C)(C)N)CC[C@]4(C)[C@H]3CC[C@]12C [SA164, (3S,8S,9S,10R,13R,14S,17R)-10,13-dimethyl-17-((R)-6-methylheptan-2-yl)-2,3,4,7,8,9,10,11,12,13,14,15,16,17-tetradecahydro-1H-cyclopenta[a]phenanthren-3-yl 4-((3-amino-3-methylbutyl)(8-amino-8-methylnonyl)amino)-4-oxobutanoate dihydrochloride] | 72.5 | 0.14 | 73 | 0.14 | 99.2 | 98.0 | 16.2 ± 0.7 | 17129.2 ± 2374.1
